{"source": "paper PMC11799930", "about": "“Discovery of potent measles virus fusion inhibitor peptides via structure-guided derivatization” (RSC Medicinal Chemistry, 2025)", "key": {"[1]": {"biological_target": "MeV-F (prefusion-stabilized ectodomain trimer)", "assay": "Surface plasmon resonance (SPR) binding to MeV-F", "set-up": "species or system Measles virus", "conditions": "peptides (EG-K derivatives) immobilized on sensor chip, MeV-F as analyte, 25 °C"}, "[2]": {"test_system": "MeV-EGFP", "conditions": "viral entry inhibition assay; for IC50 / IC90: Vero/hSLAM cells, MeV-EGFP; for IC50: triplicate; for IC90: calculated from Hill coefficient and IC50", "description": "(§1) To evaluate how modifying the C-terminus of FIP affects the interactions of FIP and MeV-F, we synthesized three FIP derivatives, named FIP-G3A, FIP-G3a, and FIP-NH2 (Fig. 2a). The inhibitory activities of the derivatives were evaluated using a virus-mediated cell-to-cell fusion assay (Fig. 2b). In this assay, Vero cells stably expressing hSLAM (Vero/hSLAM cells)[21] were infected with EGFP-recombinant MeV (MeV-EGFP) for 1 h at 37 °C, then the medium containing MeV-EGFP was replaced with a medium containing each FIP derivative and incubated at 37 °C for 48 h. The inhibitory activity was assessed based on the size and area of the syncytia observed by fluorescence microscopy, albeit qualitatively. […] To more quantitatively compare the inhibitory activity of FIP and FIP-NH2 against MeV infection in cells, a viral entry inhibition assay was conducted using a serially diluted compound, and the IC50 and IC90 values of the compounds were determined. In this assay, Vero/hSLAM cells were infected with inhibitor-treated MeV-EGFP at 37 °C for 1 h. Subsequently, the supernatant was replaced with a medium containing 100 μM of FIP, and the cells were further incubated at 37 °C for 48 h. Finally, the number of virus-infected cells was quantified using fluorescence microscopy. […]\npfu/well and incubated with peptide solution in 10% FBS/DMEM containing 0–1% DMSO for 30 min at room temperature. Vero/hSLAM cells were then infected with the inhibitor-treated MeV-EGFP for 1 h at 37 °C. The supernatant, including the virus, was replaced with 100 µM FIP (Peptide Institute, Inc. cat#4092) solution in 0–1% DMSO in 10% FBS/DMEM, and EGFP-positive cells were counted under fluorescence microscopy (BZ-X710, keyence) after incubation for 48 h at 37 ℃. The entry inhibition rate was calculated as 100 − (the number of sample EGFP positive cells − the number of cell-only control EGFP positive cells) / (the number of viral control EGFP positive cells − the number of cell-only control EGFP positive cells) × 100. This experiment was performed in triplicate. IC50 values were calculated using parameters determined by fitting the plot to a four-parameter logistic regression model (Hill equation) implemented in Python (Matplotlib and SciPy libraries). The equation used was: y = d + (a – d) / (1 + (x / c)b). x, y, a, b, c, and d represent peptide concentration, fraction of infected cells, maximum response, Hill coefficient (degree of cooperativity), IC50, and minimum response, respectively. Curve fitting was performed using the curve_fit function from the SciPy library, and IC90 values were calculated using the derived Hill coefficient and IC50 values. […]\n(BZ-X710, keyence) after incubation for 48 h at 37 ℃. […]"}, "[3]": {"test_system": "MeV-EGFP", "assay": "Virus-mediated cell-to-cell fusion assay (syncytia in Vero/hSLAM cells infected with MeV-EGFP)", "type": "cell-based, Measles virus", "conditions": "48 h, qualitative", "description": "as §1\nVirus-mediated cell-to-cell fusion assay. Vero/hSLAM cells were cultured in 96 well plates (Thermo scientific cat#167008) overnight at 37 ℃. Vero/hSLAM cells were then infected with MeV-EGFP (200 pfu / well) for 1 h. The supernatant, including the virus, was replaced with 10% FBS/DMEM with or without 1, 10, 100 µM FIP or a FIP derivative. The images of cell-to-cell fusion were captured by fluorescence microscopy (BZ-X710, keyence) after incubation for 48 h at 37 ℃."}, "[4]": {"biological_target": "T1, MeV-F wild type (Measles virus, UniProt Q786F3)", "T1 construct": "wild-type full-length MeV-H (pCA7-ICH) and MeV-F; expressed in transfected cells; host or cells: Vero/hSLAM cells", "type": "cell-based", "conditions": "qualitative; for inhibition of syncytia formation: 24 h", "excerpt": "To obtain new interactions, we designed and synthesized FIP-NH2 derivatives in which Gly residue is replaced with a D-amino acid residue shown in Fig. 3a (FIP-G3x-NH2, x = d, e, h, k, n, q, r, s, t). To avoid proteolytic degradation of the derivatized peptides, D-amino acid residues were adopted. Because FIP consists of hydrophobic structures, polar residues were recruited for replacing the Gly residue to avoid poor aqueous solubility of the resulting derivatives. The inhibitory activities of the synthesized derivatives were evaluated by cell-to-cell fusion assay. In this assay, each FIP derivative was added to the medium of Vero/hSLAM cells transiently expressing MeV-F, MeV-H, and EGFP, and the cells were incubated at 37 °C for 24 h. The cells were observed under a fluorescence microscope, and inhibition of the syncytia formation was qualitatively assessed based on the size and area of emitting fluorescence (Fig. 3b). We also synthesized and evaluated the reverse sequence of FIP, FIP-rev (Z-Gly-Phe-D-Phe-OH), and the enantiomer of FIP, FIP-enan (Z-Phe-D-Phe-Gly-OH), as negative controls.\nFig. 3 Chemical structures and cell-to-cell fusion assay of FIP and its derivatives using Vero/hSLAM cells expressing MeV-F and MeV-H. a) Chemical structures of FIP and its derivatives. b) A schematic illustration of cell-to-cell fusion assay. […] All the experiments were conducted in triplicate. […]\n(BZ-X710, keyence) after incubation for 48 h at 37 ℃.\nCell-to-cell fusion assay using wild-type MeV-F plasmid. Vero/hSLAM cells in 96-well plate were transfected with 0.01 µg pCA7-ICH, 0.0375 µg pCA7-ICF and 0.3 µg pCA7 plasmid encoding EGFP (pCA7-EGFP) using VeroFect (0.695 µL, OZ Biosciences) in 10% FBS/DMEM when the confluency of the cells was about 90%. FIP or an FIP derivative in DMSO was added in each sample to 100 or 0.5 µM as the final […]\nconcentration. […]"}, "[5]": {"assay": "physchem", "type": "physicochemical"}, "[6]": {"conditions": "1 μM inhibitor in serum"}, "[7]": {"assay": "in vitro", "conditions": "bovine"}, "[8]": {"test_system": "MeV", "set-up": "method as in PMID 7414950", "conditions": "plaque assay for MeV; cited from earlier work"}, "[9]": {"biological_target": "T2, E471S mutant of MeV-F (Measles virus, UniProt Q786F3, E471S)", "T2 construct": "Full-length E471S MeV-F was amplified through PCR and site-directed mutagenesis; expressed in transfected cells; host or cells: Vero cells per the methods", "assay": "Cell-to-cell fusion assay using MeV-F E471S mutant", "type": "cell-based", "conditions": "Fig. 4e, qualitative", "excerpt": "To identify the plausible new interactions formed between FIP-G3r-NH2 and MeV-F, we conducted docking simulations using Autodock Vina.[22,23] First, we conducted a docking simulation of FIP and MeV-F to assess the reliability of the docking simulations (Fig. 4a). […] We then conducted a docking simulation of FIP-G3r-NH2 and MeV-F (Fig. 4c). We found a docking pose in which the binding conformation of the main chain and the aromatic ring of FIP-G3r-NH2 is similar to that of FIP (Fig. 4d). […] It should be noted that the MeV-F E471S mutant protein was synthetically produced for this experiment, and, to our knowledge, this mutant has not been reported as a natural variant. […]\npfu/well and incubated with peptide solution in 10% FBS/DMEM containing 0–1% DMSO for 30 min at room temperature. […] The supernatant, including the virus, was replaced with 100 µM FIP (Peptide Institute, Inc. cat#4092) solution in 0–1% DMSO in 10% FBS/DMEM, and EGFP-positive cells were counted under fluorescence microscopy (BZ-X710, keyence) after incubation for 48 h at 37 ℃. The entry inhibition rate was calculated as 100 − (the number of sample EGFP positive cells − the number of cell-only control EGFP positive cells) / (the number of viral control EGFP positive cells − the number of cell-only control EGFP positive cells) × 100. […]"}}, "note": "“Also recorded” adds a separate entry of the source. Read-outs that look alike come from different tables or passages of the source. Where a SMILES comes first, the peptide text is derived from it. [ ]: non-standard residue; d: D form. The star is where a group is joined. Cbz = O=C(OCc1ccccc1)*; AEEA = NCCOCCOCC(=O)O"}
{"compound": "N=C(N)NCCC[C@@H](NC(=O)[C@H](Cc1ccccc1)NC(=O)[C@@H](Cc1ccccc1)NC(=O)OCc1ccccc1)C(=O)NCCOCCOCC(=O)N[C@@H](CCCCN)C(N)=O", "note": "[FIP-G3r-NH-EG-K] (Cbz-[dF]F[dR][AEEA]K-NH2)", "values": [{"measurement": "Kd", "setting": "[1]", "result": 6.6, "unit": "nM"}]}
{"compound": "NC(=O)CNC(=O)[C@H](Cc1ccccc1)NC(=O)[C@@H](Cc1ccccc1)NC(=O)OCc1ccccc1", "note": "[FIP-NH2] (Cbz-[dF]-Phe-Gly-NH2)", "values": [{"measurement": "IC50", "setting": "[2]", "result": 510, "unit": "nM"}, {"measurement": "IC90", "setting": "[2]", "result": 3600, "unit": "nM"}, {"measurement": "inhibition of syncytia formation", "setting": "[3]; 1 μM", "result": "a little higher inhibitory activity than FIP"}, {"measurement": "inhibitory activity against MeV-induced cell fusion compared with FIP", "setting": "[3]; 100, 10 or 1 μM", "result": "did not decrease the inhibitory activity"}, {"measurement": "Kd", "setting": "[1]", "result": 81, "unit": "nM"}]}
{"compound": "Cbz-Gly-Phe-[dF]-OH [FIP-rev]", "values": [{"measurement": "inhibition of syncytia formation", "setting": "[4]; 100 μM", "result": "lower inhibitory activity than FIP"}]}
{"compound": "O=C(O)CNC(=O)[C@H](Cc1ccccc1)NC(=O)[C@@H](Cc1ccccc1)NC(=O)OCc1ccccc1", "note": "[FIP, Z-D-Phe-Phe-Gly, reference compound] (Cbz-[dF]-Phe-Gly-OH)", "values": [{"measurement": "solubility", "setting": "[5]", "result": "98 ± 1", "unit": "µM"}, {"measurement": "inhibition of syncytia formation", "setting": "[4]; 0.5 μM", "result": "weakly inhibited syncytia formation"}, {"measurement": "inhibition of syncytia formation", "setting": "[4]; 100 μM", "result": "strongly inhibited syncytia formation"}, {"measurement": "IC50", "setting": "[2]", "result": 1300, "unit": "nM"}, {"measurement": "IC90", "setting": "[2]", "result": 12000, "unit": "nM"}, {"measurement": "inhibition of syncytia formation", "setting": "[3]; 1 μM", "result": "inhibited fusion only weakly"}, {"measurement": "inhibition of syncytia formation", "setting": "[3]; 10 μM", "result": "strongly inhibited syncytia formation"}, {"measurement": "inhibition of syncytia formation", "setting": "[3]; 100 μM", "result": "strongly inhibited syncytia formation"}, {"measurement": "proteolytic stability in serum", "setting": "[6]", "result": "high proteolytic stability"}, {"measurement": "half-life at 1 μM", "setting": "[7]", "result": "> 24", "unit": "h"}, {"measurement": "IC50", "setting": "[8]", "result": 200, "unit": "nM"}]}
{"compound": "Cbz-Phe-[dF]-Gly-OH [FIP-enan]", "values": [{"measurement": "inhibition of syncytia formation", "setting": "[4]; 100 μM", "result": "lower inhibitory activity than FIP"}]}
{"compound": "NCCCC[C@H](NC(=O)COCCOCCNC(=O)CNC(=O)[C@H](Cc1ccccc1)NC(=O)[C@@H](Cc1ccccc1)NC(=O)OCc1ccccc1)C(N)=O", "note": "[FIP-NH-EG-K] (Cbz-[dF]FG[AEEA]K-NH2)", "values": [{"measurement": "Kd", "setting": "[1]", "result": 81, "unit": "nM"}]}
{"compound": "N=C(N)NCCC[C@@H](NC(=O)[C@H](Cc1ccccc1)NC(=O)[C@@H](Cc1ccccc1)NC(=O)OCc1ccccc1)C(N)=O", "note": "[FIP-G3r-NH2] (Cbz-[dF]-Phe-[dR]-NH2)", "values": [{"measurement": "solubility", "setting": "[5]", "result": "83 ± 4", "unit": "µM"}, {"measurement": "inhibition of syncytia formation", "setting": "[4]; 0.5 μM", "result": "higher inhibitory activity than FIP-NH2; also recorded: completely inhibited the syncytia formation"}, {"measurement": "membrane fusion inhibitory activity", "setting": "[4]; MeV-F wild type (WT), Fig. 4e", "result": "higher membrane fusion inhibitory activity than FIP"}, {"measurement": "IC50", "setting": "[2]", "result": 210, "unit": "nM"}, {"measurement": "IC90", "setting": "[2]", "result": 1800, "unit": "nM"}, {"measurement": "fold higher inhibitory activity than FIP (IC50)", "setting": "[2]; relative to FIP", "result": "about six-fold"}, {"measurement": "Kd", "setting": "[1]", "result": 6.6, "unit": "nM"}, {"measurement": "proteolytic stability in serum", "setting": "[6]", "result": "high proteolytic stability"}, {"measurement": "half-life at 1 μM", "setting": "[7]", "result": "> 24", "unit": "h"}, {"measurement": "membrane fusion inhibitory activity", "setting": "[9]", "result": "dropped to the same level as FIP"}]}
